Measurements published in US20120015907A1, “Furopyridine compounds and uses thereof” (NOVARTIS AG, priority 2010, published 2012).

What follows are compounds tested against T1, HCV polymerase (Hepatitis C virus genotype 1b, UniProt Q9WMX2) (assay: biochemical). Conditions: polymerase assay of Biological Example 1; read-out: NS5B polymerase IC50.
T1 construct: (His)6 (C)

Row | IC50 [nM] | Structure (SMILES)
1 | 2 | CNC(=O)c1c(-c2ccc(C)cc2)oc2nc(N(CCCC3(C(=O)O)CCN(C(C)=O)CC3)S(C)(=O)=O)c(C3CC3)cc12 [Example 29.99992, 1-acetyl-4-(3-(N-(5-cyclopropyl-3-(methylcarbamoyl)-2-p-tolylfuro[2,3-b]pyridin-6-yl)methylsulfonamido)propyl) piperidine-4-carboxylic acid]
2 | 3 | CNC(=O)c1c(-c2ccc(C)cc2)oc2nc(N(CCCC3(C(=O)O)CCN(C)CC3)S(C)(=O)=O)c(C3CC3)cc12 [Example 29.99993, 4-(3-(N-(5-cyclopropyl-3-(methylcarbamoyl)-2-p-tolylfuro[2,3-b]pyridin-6-yl)methylsulfonamido)propyl)-1-methylpiperidine-4-carboxylic acid]
3 | 7 | CNC(=O)c1c(-c2ccc(C)cc2)oc2nc(N(CCOCCBr)S(C)(=O)=O)c(C3CC3)cc12 [Example 29.99994, 6-(N-(2-(2-bromoethoxy)ethyl)methylsulfonamido)-5-cyclopropyl-N-methyl-2-p-tolylfuro[2,3-b]pyridine-3-carboxamide]
4 | 32 | CNC(=O)c1c(-c2ccc(C)cc2)oc2nc(N(CCOCCC3(C(=O)O)CCOCC3)S(C)(=O)=O)c(C3CC3)cc12 [Example 29.99995, 4-(2-(2-(N-(5-cyclopropyl-3-(methylcarbamoyl)-2-p-tolylfuro[2,3-b]pyridin-6-yl)methylsulfonamido)ethoxy)ethyl)tetrahydro-2H-pyran-4-carboxylic acid]
5 | 37 | CNC(=O)c1c(-c2ccc(C)cc2C)oc2nc(N(CCCCC(=O)O)S(C)(=O)=O)c(C3CC3)cc12 [Example 29.99996, 5-(N-(5-cyclopropyl-2-(2,4-dimethylphenyl)-3-(methylcarbamoyl)furo[2,3-b]pyridin-6-yl)methylsulfonamido) pentanoic acid]
6 | 4 | CNC(=O)c1c(-c2ccc(C)cc2)oc2nc(N(CCC[C@@H](C)C(=O)N[C@H](C(=O)OC)c3ccccc3)S(C)(=O)=O)c(C3CC3)cc12 [Example 29.99997, (S)-methyl 2-((R)-5-(N-(5-cyclopropyl-3-(methylcarbamoyl)-2-p-tolylfuro[2,3-b]pyridin-6-yl)methylsulfonamido)-2-methylpentanamido)-2-phenylacetate]
7 | 2 | CNC(=O)c1c(-c2ccc(C)cc2)oc2nc(N(CCC[C@@H](C)C(=O)N[C@@H](C(=O)OC)c3ccccc3)S(C)(=O)=O)c(C3CC3)cc12 [Example 29.99998, (R)-methyl 2-((R)-5-(N-(5-cyclopropyl-3-(methylcarbamoyl)-2-p-tolylfuro[2,3-b]pyridin-6-yl)methylsulfonamido)-2-methylpentanamido)-2-phenylacetate]
8 | 21 | CNC(=O)c1c(-c2ccc(C)cc2)oc2nc(N(CCCCC(=O)NCCCC(=O)O)S(C)(=O)=O)c(C3CC3)cc12 [Example 29.99999, 4-(5-(N-(5-cyclopropyl-3-(methylcarbamoyl)-2-p-tolylfuro[2,3-b]pyridin-6-yl)methylsulfonamido)pentanamido)butanoic acid]
9 | 20 | CNC(=O)c1c(-c2ccc(C)cc2)oc2nc(N(CCC[C@H](C)C(=O)NCCCC(=O)O)S(C)(=O)=O)c(C3CC3)cc12 [Example 29.999991, (S)-4-(5-(N-(5-cyclopropyl-3-(methylcarbamoyl)-2-p-tolylfuro[2,3-b]pyridin-6-yl)methylsulfonamido)-2-methylpentanamido)butanoic acid]
10 | 7 | CNC(=O)c1c(-c2ccc(C)cc2)oc2nc(N(CCCC3(C(=O)O)CCN(C(=O)C(C)(C)C)CC3)S(C)(=O)=O)c(C3CC3)cc12 [Example 29.999992, 4-(3-(N-(5-cyclopropyl-3-(methylcarbamoyl)-2-p-tolylfuro[2,3-b]pyridin-6-yl)methylsulfonamido)propyl)-1-pivaloylpiperidine-4-carboxylic acid]
